Experiments:
[1] = test system: rats
Experimental: Twenty 2-month old, male Sprague Dawley (SD) rats were housed in a temperature-controlled room (22° C. to 25° C.) with a dark period from 08:00 pm to 08:00 am daily. […] Over 7 days before the training and trial period began, each rat was handled and habituated to the maze and to Kellogg's Froot Loop cereal.
Each rat underwent a test of one trial, followed by an interval of 10-minutes, followed by another trial, and so on, for a total of 6 trials in one day. In each trial, each rat went through a sample run in the maze, followed by an interval of 15 seconds, followed by a choice run in the maze. In the sample run, the subject rat was forced to go to the left or to the right by the presence of a block, according to a pseudorandom sequence (with an equal number of left turns and right turns, and no more than two consecutive turns in the same direction). As a reward, Froot Loop cereal was available in the food well at the end of the run, regardless of the direction that was taken by virtue of the block. In the choice run, the block that had been present in the preceding sample run was removed, and the rat was allowed to choose to go to the left or to the right. As a reward, Froot Loop cereal was available in the food well at the end of the run, only when the rat had made a “correct choice” by choosing the direction opposite that taken in the preceding sample run. […]
On the first day (designated day 0) of the feeding of the two groups, as just described, each rat underwent a preliminary test of one trial, followed by an interval of 10 minutes, followed by another trial, and so on, for a total of 4 trials in one day. […] In this preliminary test, the choice accuracy level, or ratio of correct choices made, co, to the number of number of trials in the test, no, was determined for each rat. […]
Three groups of animals (young, aging, and magnesium-treated aging rats) were used. […] Spatial working memory was assessed using a T-maze non-matching-to-place task. […] Spatial working memory was first assessed on an elevated T-maze. […]

[2] = test system: rats; assay: Novel object recognition test in rats; assay type: in vivo, Sprague-Dawley rats
Experimental: In this example, the effect of magnesium supplementation on recognition memory was tested. Three groups of rats were used in these experiments: 1) young rats (three months old); aging rats (12-14 months old), and; 3) magnesium-treated aging rats (12-14 months old, diet supplemented with 6 mg/kg MgCl2 from 8 months of age). We used experimentally naive, female, Sprague-Dawley young […], aging (12-14 month old) and […] rats (Charles River) at the beginning of the behavior experiments. They were housed two per cage with continuous access to food and water under a 12:12 light-dark cycle, with light onset at 8:00 a.m. […] All experiments involving animals were approved by the Massachusetts Institute of Technology's and Tsinghua University Committees on Animal Care.
The three groups of rats were tested for recognition memory using an object recognition test with a single exposure to the object during training. The task is based on the natural tendency of rodents to explore new objects and tests the animals' memory capacity for distinguishing novel versus familiar objects.
Briefly, the rats were first individually habituated to the personnel and then to open-field arena during 2 weeks. […] The retention intervals were 10 min and 24 hours. Objects were cleaned thoroughly between trials with 20% ethanol solution to ensure the absence of olfactory cues. The particular objects for a given trial were randomly determined, but each object was used for only one trial per rat. Memory of the familiar object is associated with increased exploration of the new object and an exploration index (% correct) is calculated as new object inspection time/30.
In this example, the effect of magnesium supplementation on memory consolidation was studied. […]
Briefly, the rats were first individually habituated to the personnel and then to open-field arena during 2 weeks. […] The particular objects for a given trial were randomly determined, but each object was used for only one trial per rat. […]

[3] = test system: rats; details: 2% in food for 8 days, cited from earlier work
[4] = test system: mice genetically altered to present symptoms of Alzheimer's disease (AD); assay: Modified Morris water maze test in AD mice; assay type: in vivo; details: AD mice aged 13 months, compared with aricept
Experimental: Another group, the control group, of 10 mice that were genetically altered to present symptoms of AD were fed a Control Diet, a diet of normal solid food and water, for 30 days.
The pool used was a pool of water in a circular metal tank (150 cm in diameter and 50 cm in depth) having a water height of 30 cm and a water temperature that was maintained at ˜22° C. The pool was placed in a moderately lit area and surrounded by a black curtain. An acrylic platform (15 cm in diameter) was placed 2 cm below the surface of the water in the middle of one quadrant of the pool, equidistant from the center and the edge of the pool. Outside the pool, a cue was placed so as to be visible to a mouse in the maze, allowing a mouse to use it as a landmark for spatial orientation. The cue remained unchanged throughout the test period.
On the first day of the training and testing period, the water in the pool was transparent, such that the platform was visible. Each mouse was trained to swim towards the platform and to stand on the platform so as not to be submerged in the pool. […] The amount of time the mouse took to find the platform, referred to as “escape latency,” was recorded for each trial.
On the second day of the training and testing period, a small quantity of milk was added to the water in the pool, such that the pool was opaque and the platform was no longer visible. […]

In the case of [Cl-].[Cl-].[Mg+2] [MgCl2, magnesium chloride], the “asymptotic choice accuracy level” value ([1]; after 8 days of training, 15 s delay) was ~94%, the “spatial working memory at increased delay” value ([1]; aging rats, MgCl2 diet, 2 and 5 min delays) was “significantly enhanced the performance of the aging rats at 2 and 5 min delays” and the “learning in non-matching-to-place task” value ([1]; aging rats, MgCl2 diet, 15 sec delay) was “performed significantly better from their first trials”. For the same compound, the “novel object exploration preference, 10 minute retention interval” value ([2]; aging rats 12-14 months, 6 mg/kg MgCl2 from 8 months of age, single training) was “preferentially explored the novel object to the same extent as young rats”, the “novel versus familiar object discrimination, 24 hours retention” value ([2]; aging rats, 6 mg/kg MgCl2, single training) was “lose there ability to distinguish novel versus familiar objects” and the “preference for the novel object, 24-hour retention after spaced training” value ([2]; aging rats, two training sessions separated by 10 minutes) was “retained a high level of preference”.

For [O]=[Mg] [magnesium oxide], the side-effect [3] is listed as “diarrhea and weight loss” and the cognitive function ([3]; young (9-month) and aged (25-month) rats) is listed as “some sign of improvement of cognitive function”.

With CC12CC3CC(C)(C1)CC(N)(C3)C2 [memantine] the “reduction of the effects of AD on learning capacity, comparison of anti-AD drugs” value [4] was “better at reducing the effects of AD on learning capacity than aricept”.
